Experimental data: patent publication US20210236582A1, “ANTIMICROBIAL COMPOSITION BASED ON POLYPHENOLS AND POLYSACCHARIDES, METHOD FOR PREPARING THEREOF AND USE OF THE SAME” (priority 2018, published 2021)
In brackets after ≈: the same amount, converted by molar mass.

Legend:
in vitro = details: dog
[1] = system: Influenza A/Puerto-Rico/8/34 (H1N1) virus; assay type: cell-based; details: for Antiviral activity against A/PR8 (H1N1) virus ΔlgTCID50 av: pronounced antiviral activity ≥ 1.50
MDCK ECACC cell line = details: MDCK ECACC cells, 48 h incubation, MTS

| Molecule | CC50 at 48 h (in vitro) [µg/mL] | Antiviral activity against A/PR8 (H1N1) virus ΔlgTCID50 av [1] | Antiviral activity against A/PR8 (H1N1) virus IC50 av ([1]; MDCK ECACC cells, assessed after 48 h by CPE and HAR) | Cytotoxicity CC50 av (MDCK ECACC cell line) [µg/mL] |
| --- | --- | --- | --- | --- |
| Cc1cc2c(C(C)C)c(O)c(O)cc2c(O)c1-c1c(C)cc2c(C(C)C)c(O)c(O)cc2c1O [Apogossypol, apogossypol] | 9.4 (≈ 20.3 µM) | 0.50 | – | – |
| gossypol acetic acid | – | 1.32 | 0.0012 | 3.9 |
